Measured values published in patent publication US6979747B2, “Antioxidants, preparation processes and their uses” (Centre National de la Recherche Scientifique (CNRS), priority 1999, dated 2005).

Key:
HIV provirus = assay: Quantification of proviral DNAs by PCR (integration of the provirus within the cell genome); type: cell-based; conditions: 10 μM
Method: I-152 is composed of MEA and NAC, which are capable of interacting with the early phases of the biological cycle of HIV. It is therefore capable of decreasing the integration of the provirus into the cell genome. In order to measure these effects, the proviral DNAs were quantified by PCR. The cells were lysed using 1 ml of the following lysis solution: 10 mM Tris HCl pH 8; 100 mM of EDTA pH 8; 0.5% of sodium dodecyl sulfate (SDS); 20 μg/ml of DNAse-free bovine pancreatic RNAse. 200 μg/ml of proteinase K are subsequently added to this suspension. The DNAs were subsequently extracted using 1 ml of an ice-cold saturated phenol solution and 1 ml of a […] solution.
The viral DNAs were then amplified by means of specific primers of the gag gene (SK01/SK39) and of a standard range of the 8E5 line, a chronically infected line, the cells of which carry a proviral copy. The β-globin gene was used as reporter gene in order to make sure of the quality of the DNA extraction.

MDMs = assay: Cytotoxicity with respect to MDMs (neutral red); type: cell-based, human
Method: These tests are carried out systematically in parallel with the evaluation of the antiviral activity. In view of the oxidation/reduction capacity of the molecules tested, the test with the tetrazolium salt, which measures the activity of mitochondrial dehydrogenases, cannot be used.
Neutral red (NR) is a vital dye which makes it possible to measure the viability of adherent cells, such as MDMs. 600 μl of culture supernatant are removed and replaced with 400 μl of an NR solution (0.001% m/v in phosphate buffer, PBS, Boehringer Mannheim), filtered at 0.45 μm. The cells were incubated for 1 h at 37° C. and are subsequently washed (2×1 ml of PBS). The cells are then lysed at −20° C. with 200 μl of a 50% ethanol mixture comprising 1% of glacial acetic acid. The OD is measured twice with 100 μl of solution using a spectrophotometer.

HIV-1/Ba-L = assay: Antiviral activity in MDM cultures infected with HIV-1/Ba-L (RT activity in culture supernatants); type: cell-based; conditions: for antiviral activity (in words): second series, compounds dissolved in DMSO then diluted, MDMs, HIV-1/Ba-L; for EC50: Human immunodeficiency virus 1, BAL, MDMs infected with 10 000 TCID50s HIV-1/Ba-L (m.o.i. 0.01), read-out: inhibiting concentration (50% effective dose)
Method: A million monocytes in 1 ml of culture medium A are distributed in each well of a 48 well plate (Becton-Dickinson). The monocytes are left to differentiate into macrophages for 7 days. The macrophages thus differentiated are maintained in culture in medium A.
(§1) The MDMs were infected with the reference isolate with macrophage tropism, HIV-1/Ba-L. The PBMCs and the PBLs were infected with the reference isolate with lymphocyte tropism HIV-1 LAI. The viral stock were formed by amplifying these strains in vitro using umbilical blood mononucleated cells (UBM(s) preactivated with 1 μg/ml of PHA-P and cultured in medium A supplemented by 20 IU/ml of IL-2. In order to remove the soluble factors, such as cytokines, the culture supernatants were ultracentrifuged at 360 000 g for 5 min, and the pellets were resuspended in RPMI 1640. The viral stocks thus formed were subsequently titred using PBMCs activated with PHA-P. The TCID50s (50% Tissue Culture Infectious Dose) were calculated using the Kärber formula.
(§2) A million MDMs were infected with 10 000 TCID50s of the HIV-1/Ba-L strain. This amount of virus corresponds to a multiplicity of infection (m.o.i.) equal to 0.01. The excess of virus is removed 24 h after by washing with cells using RPMI 1640. The PBLs and the PBMCs were infected with 10 000 TCID50s of the HIV-1 LAI strain (moi=0.01). The cells were washed at the end of the second day of infection.
(§3) The viral replication is measured by assaying the RT activity in the culture supernatants according to the technique described by F. Rey et al. (Biochem. Biophys. Res. Comm., 1984, 121, 126-133). The radioactivity incorporated during the extension of the complementary strand of a poly-rA synthetic matrix in the presence of an oligo-dT12-18 primer and of a radiolabeled substrate, [^3H-methyl]thymidine-5′-triphosphate ([^3H]TPP), makes it possible to assay the enzymatic activity of RT. 400 μl of supernatant are ultracentrifuged at 360 000 g for 5 min. The RT is released by lysis of the viral pellet in 20 μl of NTE-Triton (100 mM NaCl, 10 mM Tris, 1 mM EDTA, 0.1% Triton X-100). These 20 μl are subsequently incubated with 40 μl of the following reaction mixture: 62.5 mM Tris, pH 7.8; 25 mM KCl; 6.25 mM MgCl2; 1.25 mM dithiothreitol (DTT); 2.5×10^−3 ODU oligo-dT12-18 and poly-rA, 5.55×10^−3 TBq {^3H]TTP. After one hour at 37° C., the enzymatic reaction is halted and the newly synthesized strands are precipitated for 20 min at 4° C. by the addition of 1 ml of sodium pyrophosphate (NaPP), of 50 μl of yeast DNA (0.1 mg/ml in 5% trichluoroacetic acid (TCA)), and of 4 ml of 20% TCA. The mixture is filtered using a cellulose acetate membrane (Millipore) which retains the radiolabeled poly-dT chains. The filter is washed using 20 ml of 5% TCA and the residual water is removed by addition of 25 μl of 70% ethanol. The filter is dried in an oven for 10 minutes at 80° C. and is then introduced into vials containing 8 ml of liquid scintillant. The β radioactivity is quantified by means of a scintillation counter (Packard Bell). The results are expressed in pM of [^3H]-TMP incorporated/h/ml of supernatant or, more simply, in cpm/h/ml.
The 50% effective doses (ED50) are calculated from the cumulative RT activities using the software “Dose-effects analysis with microcomputers” developed by J. Chou & T. C. Chou.

[1] = system: total glutathione (GSH+GSSG); assay: Total intracellular glutathione in quiescent PBMCs; type: cell-based, human; conditions: quiescent PBMCs; for effect on intracellular level of glutathione (in words): 24 h treatment
[2] = target: T1, RT of the HIV-1 LAI isolate (Human immunodeficiency virus type 1 group M subtype B, UniProt P03367); assay: Acellular test of the enzymatic activity of RT; type: biochemical; conditions: for decrease of RT activity: 500 μM
T1 construct: The RT is released by lysis of the viral pellet in 20 μl of NTE-Triton; endogenous in cells; host or cells: Virions pelleted by ultracentrifugation from supernatants of infected cell cultures
Method: as §3
The I-152 molecule is composed of NAC and MEA, which are capable of inhibiting the activity of RT (A. Bergamini et al., J. Clin. Invest., 1994, 93, 2251-2257). For this reason, the inhibiting capacity of I-152 with respect to the RT activity was measured using an acellular test. This test was carried out according to the protocol described above (§ 3.3.3.1.). In the reaction mixture, only the 20 μl of water are replaced by 20 μl of a concentration of I-152 or of the reference compounds. Heparin, known for inhibiting the activity of RT and of the other DNA polymerases, is used as positive control for inhibition.

HIV-1 LAI [3] = assay: Antiviral activity in quiescent or PHA-P activated PBMCs infected with HIV-1 LAI; type: cell-based; conditions: quiescent and activated PBMCs, at known cytotoxic doses (so in the source)
Method: (§4) For some experiments, the PBMCs and the PBLs are activated for 48 h with 1 μg/ml of a mitogen, PHA-P (Difco Laboratories). The PBMCs and the PBLs are cultured in medium A (quiescent) or B (activated). The cells are cultured at 37° C. in an atmosphere saturated with moisture under 5% of CO2. The culture supernatants are removed and the culture media are replaced every three or four days. At each renewal of the culture media, the cell viability is evaluated by coloring with trypan blue or by microscopic observation.
as §1, §2, §3
The PBMCs, quiescent or activated by PHA-P, were infected by the reference strain with lymphocyte tropism HIV-1 LAI. All the culturings were carried out in parallel and the drugs were maintained throughout the culturing.

PBLs = conditions: PBL cultures
GSH = assay: Intracellular GSH in MDMs infected with HIV-1/Ba-L; type: cell-based, human; conditions: conditions of stress
Method: The intracellular GSH was assayed by means of the assay kit sold by Cayman. This method for assaying glutathione is an adaptation of that described by O. W. Griffith et al. (1980).
The compound I-152 and its derivatives are prepared extemporaneously by being dissolved in dimethyl sulfoxide (DMSO) at the concentration of 100 mM. They are subsequently stored at −20° C. after having been diluted 10 fold in phosphate buffer (PBS).

PBMCs = conditions: PBMC cultures
HIV-1 LAI [4] = assay: Antiviral activity in quiescent or PHA-P activated PBLs infected with HIV-1 LAI; type: cell-based; conditions: quiescent PBLs or PBLs activated by PHA-P
Method: as §4, §1
A million MDMs were infected with 10 000 TCID50s of the HIV-1/Ba-L strain. This amount of virus corresponds to a multiplicity of infection (m.o.i.) equal to 0.01. The excess of virus is removed 24 h after by washing with cells using RPMI 1640. […]
The viral replication is measured by assaying the RT activity in the culture supernatants according to the technique described by F. Rey et al. (Biochem. Biophys. Res. Comm., 1984, 121, 126-133). The radioactivity incorporated during the extension of the complementary strand of a poly-rA synthetic matrix in the presence of an oligo-dT12-18 primer and of a radiolabeled substrate, [^3H-methyl]thymidine-5′-triphosphate ([^3H]TPP), makes it possible to assay the enzymatic activity of RT. […] The β radioactivity is quantified by means of a scintillation counter (Packard Bell). […]

Compound: Cc1cn([C@H]2C[C@H](N=[N+]=[N-])[C@@H](CO)O2)c(=O)[nH]c1=O [AZT, 3′-azido-3′-deoxythymidine, reference compound]
- inhibition of integration of the provirus (in words) (HIV provirus): perfect

Compound: CC(=O)N[C@@H](CSC(C)=O)C(=O)NCCSC(C)=O [I-176, N-(N,S-bisacetyl-L-cysteinyl)-S-acetylcysteamine]
- cytotoxicity (in words) (MDMs; FIG. 12, at the dose tested): cytotoxic
- toxicity (in words) (MDMs; MDMs, 150 μM, second series in DMSO): slightly toxic

Compound: CC(=O)N[C@@H](CSC(=O)C(C)C)C(=O)NCCSC(C)=O [I-177, N-(N-acetyl-S-isobutyryl-L-cysteinyl)-S-acetylcysteamine]
- antiviral activity (in words) (HIV-1/Ba-L): activities similar to that of I-152

Compound: CC(=O)N[C@@H](CSC(=O)C(C)(C)C)C(=O)NCCSC(C)=O [I-178, N-(N-acetyl-S-pivaloyl-L-cysteinyl)-S-acetylcysteamine]
- antiviral activity (in words) (HIV-1/Ba-L): activities similar to that of I-152

Compound: NCCS [MEA, cysteamine, reference compound]
- intracellular glutathione at high concentration (in words) ([1]; 500 μM): decrease
- effect on intracellular level of glutathione (in words) [1]: does not significantly alter the intracellular level of glutathione
- decrease of the viability of MDMs (MDMs; MDMs, 500 μM): 65%
- cytotoxicity at antiviral doses (in words) (MDMs; MDMs): cytotoxic
- decrease of RT activity ([2]; exp. 1): 29±1%
- decrease of RT activity ([2]; exp. 2): 48±4%
- EC50 (HIV-1/Ba-L): 0.3 mM
- inhibition of viral replication (in words) (HIV-1 LAI [3]): do not inhibit viral replication
- dose from which cytotoxic (PBLs): 500 µM
- regeneration of GSH under conditions of stress (in words) (GSH): ineffective
- dose from which cytotoxic (PBMCs): 500 µM
- antiviral activity (in words) (HIV-1 LAI [4]): do not have or have a very slight antiviral activity

Compound: CC(=O)N[C@@H](CS)C(=O)O [NAC, N-Acetyl-L-cysteine]
- effect on intracellular level of glutathione (in words) [1]: better at increasing the intracellular level of glutathione
- intracellular concentration of total glutathione ([1]; dose 15 mM): ~2.64 ± 0.13 µM
- cytotoxicity (MDMs; MDMs, 15 mM): 70%
- cytotoxicity (MDMs; MDMs, 40 mM): 91%
- cytotoxicity at antiviral doses (in words) (MDMs; MDMs): cytotoxic
- inhibiting activity with respect to RT (in words) ([2]; acellular system): do not exhibit an inhibiting activity
- EC50 (HIV-1/Ba-L): 9.4 mM
- inhibition of viral replication (in words) (HIV-1 LAI [3]): do not inhibit viral replication
- regeneration of GSH under conditions of stress (in words) (GSH): ineffective
- antiviral activity (in words) (HIV-1 LAI [4]): do not have or have a very slight antiviral activity

Compound: heparin
- inhibition of RT activity (in words) ([2]; 1 mg/ml, acellular): completely inhibits
